Test results reported in US9512075B2 (OKAYAMA UNIVERSITY, priority 2012, dated 2016).
Converted amounts (≈) assume the structure as drawn. Like-named read-outs stand apart in the source and are kept apart here.

Legend:
Assay type in all cases: cell-based
[1] = test system: Staphylococcus aureus Smith strain; assay: MIC for Staphylococcus aureus Smith strain; settings: read-out: MIC Straphyrococcus aureus Smith
[2] = test system: Staphylococcus aureus 209P strain; assay: MIC for Staphylococcus aureus 209P strain; settings: Staphylococcus aureus, read-out: MIC Straphyrococcus aureus 209P
[3] = test system: Staphylococcus aureus MRSA No. 17 (methicillin-resistant Staphylococcus aureus: MRSA); assay: MIC for Staphylococcus aureus MRSA No. 17; settings: read-out: MIC Straphyrococcus aureus MRSA No. 17 (MRSA)
[4] = test system: Enterococcus faecalis 5038 strain; assay: MIC for Enterococcus faecalis 5038 strain; settings: read-out: MIC Enterococcus faecalis 5038
[5] = test system: Enterococcus faecalis NCTC12201 strain (vancomycin-resistant Enterococcus: VRE); assay: MIC for Enterococcus faecalis NCTC12201 strain (VRE); settings: read-out: MIC Enterococcus faecalis NCTC 12201 (VRE)
[6] = test system: Clostridium difficile JCM1296 strain; assay: microbe, parasite or virus in culture; settings: Clostridioides difficile, JCM1296, read-out: MIC Clostridium difficile JCM1296
[7] = test system: Clostridium perfringens PB6K strain; assay: microbe, parasite or virus in culture; settings: Clostridium perfringens, PB6KSTRAIN, read-out: MIC Clostridium perfringens PB6K, PB6K strain; CD medium, 37° C. overnight, 10% CO2-containing anaerobic conditions
[8] = test system: Escherichia coli K-12 strain; assay: MIC for Escherichia coli K-12 strain; settings: Escherichia coli, K12STRAIN, read-out: MIC Escherichia coli K12
[9] = test system: Escherichia coli BE1121 strain; assay: MIC for Escherichia coli BE1121 strain; settings: Escherichia coli, BE1121STRAIN, read-out: MIC Escherichia coli BE1121
[10] = Smith strain, regular bouillon medium, 37° C. overnight, turbidity
[11] = 209P strain, regular bouillon medium, 37° C. overnight, turbidity
[12] = MRSA No. 17, regular bouillon medium, 37° C. overnight, turbidity
[13] = 5038 strain, Heart Infusion Broth medium, 37° C. overnight, turbidity
[14] = NCTC12201 strain (VRE), Heart Infusion Broth medium, 37° C. overnight, turbidity
[15] = K-12 strain, regular bouillon medium, 37° C. overnight, turbidity
[16] = BE1121 strain, regular bouillon medium, 37° C. overnight, turbidity

SMILES: CCCCCCCCCCOC(C)C(O)=C1C(=O)N(C(=O)NCCCC)c2ccccc21 (stereo not drawn) [A020, N-(butylaminocarbonyl)-3-(2-decyloxypropionyl)-2-oxyindole]
- MIC [1, 10]: 1 µg/mL (≈ 2.25 µM)
- MIC [2, 11]: 256 µg/mL (≈ 576 µM)
- MIC [3, 12]: 256 µg/mL (≈ 576 µM)
- MIC [4, 13]: 0.5 µg/mL (≈ 1.12 µM)
- MIC [5, 14]: 1 µg/mL (≈ 2.25 µM)
- MIC [6]: 0.5 µg/mL (≈ 1.12 µM)
- MIC [7]: 4 µg/mL (≈ 9 µM)
- MIC [8, 15]: 256 µg/mL (≈ 576 µM)
- MIC [9, 16]: 256 µg/mL (≈ 576 µM)

SMILES: CCCCCCCCCC(=O)N1C(=O)/C(=C(/C)O)c2cc(F)ccc21 [A051, N-decanoyl-3-acetyl-5-fluoro-2-oxyindole]
- MIC [1, 10]: 0.5 µg/mL (≈ 1.44 µM)
- MIC ([2]; 209P): 4 µg/mL (≈ 11.5 µM)
- MIC [3, 12]: 4 µg/mL (≈ 11.5 µM)
- MIC [4, 13]: 0.5 µg/mL (≈ 1.44 µM)
- MIC [5, 14]: 0.25 µg/mL (≈ 0.72 µM)
- MIC [6]: 1 µg/mL (≈ 2.88 µM)
- MIC [7]: 8 µg/mL (≈ 23 µM)
- MIC [8]: 56 µg/mL (≈ 161 µM)
- MIC [9]: 2 µg/mL (≈ 5.76 µM)

SMILES: CCCCCCCCCC(O)=C1C(=O)N(C(=O)Nc2ccccc2)c2ccc(F)cc21 [A044, N-(phenylaminocarbonyl)-3-decanoyl-5-fluoro-2-oxyindole]
- MIC [1, 10]: 0.25 µg/mL (≈ 0.589 µM)
- MIC [2, 11]: 256 µg/mL (≈ 603 µM)
- MIC [3, 12]: 256 µg/mL (≈ 603 µM)
- MIC [4, 13]: 1 µg/mL (≈ 2.36 µM)
- MIC [5, 14]: 0.5 µg/mL (≈ 1.18 µM)
- MIC [6]: < 0.125 µg/mL
- MIC [7]: < 0.125 µg/mL
- MIC [8, 15]: 256 µg/mL (≈ 603 µM)
- MIC [9, 16]: 256 µg/mL (≈ 603 µM)

SMILES: CCCCCCCCCC(=O)N1C(=O)/C(=C(\O)c2ccccc2)c2cc(F)ccc21 [A052, N-decanoyl-3-benzoyl-5-fluoro-2-oxyindole]
- MIC [1]: 0.5 µg/mL (≈ 1.22 µM)
- MIC [2, 11]: 64 µg/mL (≈ 156 µM)
- MIC ([3]; MRSA): 64 µg/mL (≈ 156 µM)
- MIC ([4]; 5038STRAIN): 0.25 µg/mL (≈ 0.61 µM)
- MIC [5]: 0.5 µg/mL (≈ 1.22 µM)
- MIC [6]: 0.5 µg/mL (≈ 1.22 µM)
- MIC [7]: 0.5 µg/mL (≈ 1.22 µM)
- MIC [8, 15]: 256 µg/mL (≈ 625 µM)
- MIC [9, 16]: 128 µg/mL (≈ 313 µM)

SMILES: CCCCCCCCCCOC(C)C(=O)c1c(O)c2ccccc2oc1=O (stereo not drawn) [B017, 3-(2-decyloxypropionyl)-4-hydroxycoumarin]
- MIC [1]: 2 µg/mL (≈ 5.34 µM)
- MIC [2, 11]: 8 µg/mL (≈ 21.4 µM)
- MIC ([3]; MRSA): 4 µg/mL (≈ 10.7 µM)
- MIC ([4]; 5038STRAIN): 1 µg/mL (≈ 2.67 µM)
- MIC [5]: 0.5 µg/mL (≈ 1.34 µM)
- MIC [6]: < 0.125 µg/mL
- MIC [7]: 0.25 µg/mL (≈ 0.668 µM)
- MIC [8, 15]: 256 µg/mL (≈ 684 µM)
- MIC [9, 16]: 256 µg/mL (≈ 684 µM)

SMILES: CCCCCCCCCCOCC(=O)c1c(O)c2cc(Cl)ccc2oc1=O [B028, 3-decyloxyacetyl-6-chloro-4-hydroxycoumarin]
- MIC [1, 10]: 8 µg/mL (≈ 20.3 µM)
- MIC [2, 11]: 128 µg/mL (≈ 324 µM)
- MIC [3, 12]: 256 µg/mL (≈ 648 µM)
- MIC [4, 13]: 256 µg/mL (≈ 648 µM)
- MIC [5, 14]: 256 µg/mL (≈ 648 µM)
- MIC [6]: 0.25 µg/mL (≈ 0.633 µM)
- MIC [7]: 0.25 µg/mL (≈ 0.633 µM)
- MIC [8, 15]: 256 µg/mL (≈ 648 µM)
- MIC [9, 16]: 256 µg/mL (≈ 648 µM)

SMILES: CCCCCCCCCCOC(C)C(O)=C1C(=O)N(C(C)=O)c2ccccc21 (stereo not drawn) [A018, N-acetyl-3-(2-decyloxypropionyl)-2-oxyindole]
- MIC [1, 10]: 0.5 µg/mL (≈ 1.29 µM)
- MIC ([2]; 209P): 64 µg/mL (≈ 165 µM)
- MIC [3, 12]: 8 µg/mL (≈ 20.6 µM)
- MIC [4, 13]: 0.5 µg/mL (≈ 1.29 µM)
- MIC [5, 14]: 0.5 µg/mL (≈ 1.29 µM)
- MIC [6]: 256 µg/mL (≈ 661 µM)
- MIC [7]: 256 µg/mL (≈ 661 µM)
- MIC [8]: 256 µg/mL (≈ 661 µM)
- MIC [9]: < 0.125 µg/mL

SMILES: CCCCCCCCCCSCC(O)=C1C(=O)N(C(C)=O)c2ccc(Br)cc21 [A030, N-acetyl-5-bromo-3-decylthioacetyl-2-oxyindole]
- MIC [1, 10]: 0.25 µg/mL (≈ 0.534 µM)
- MIC [2, 11]: 2 µg/mL (≈ 4.27 µM)
- MIC [3, 12]: 2 µg/mL (≈ 4.27 µM)
- MIC [4, 13]: 0.25 µg/mL (≈ 0.534 µM)
- MIC [5, 14]: 0.25 µg/mL (≈ 0.534 µM)
- MIC [6]: < 0.125 µg/mL
- MIC [7]: < 0.125 µg/mL
- MIC [8, 15]: 256 µg/mL (≈ 546 µM)
- MIC [9, 16]: 8 µg/mL (≈ 17.1 µM)

SMILES: CCCCCCCCNC(=O)N1C(=O)C(=C(O)c2ccccc2)c2ccccc21 [A031, N-(octylaminocarbonyl)-3-benzoyl-2-oxyindole]
- MIC [1]: 0.5 µg/mL (≈ 1.27 µM)
- MIC ([2]; 209P): 0.25 µg/mL (≈ 0.637 µM)
- MIC ([3]; MRSA): 256 µg/mL (≈ 652 µM)
- MIC ([4]; 5038STRAIN): 25 µg/mL (≈ 63.7 µM)
- MIC [5]: 0.25 µg/mL (≈ 0.637 µM)
- MIC [6]: 0.25 µg/mL (≈ 0.637 µM)
- MIC [7]: 0.25 µg/mL (≈ 0.637 µM)
- MIC [8]: 256 µg/mL (≈ 652 µM)
- MIC [9]: 256 µg/mL (≈ 652 µM)

SMILES: CCCCCCCCCCCCNC(=O)c1c(O)c2ccccc2oc1=O [B025, 3-(dodecylaminocarbonyl)-4-hydroxycoumarin]
- MIC [1, 10]: 2 µg/mL (≈ 5.35 µM)
- MIC [2, 11]: 8 µg/mL (≈ 21.4 µM)
- MIC [3, 12]: 8 µg/mL (≈ 21.4 µM)
- MIC [4, 13]: 2 µg/mL (≈ 5.35 µM)
- MIC [5, 14]: 1 µg/mL (≈ 2.68 µM)
- MIC [6]: 4 µg/mL (≈ 10.7 µM)
- MIC [7]: 4 µg/mL (≈ 10.7 µM)
- MIC [8, 15]: 256 µg/mL (≈ 685 µM)
- MIC [9, 16]: 256 µg/mL (≈ 685 µM)

SMILES: CCCCCCCCCCOCC(O)=C1C(=O)N(C(=O)OC(C)(C)C)c2ccc(F)cc21 [A055, N-Boc-3-decyloxyacetyl-5-fluoro-2-oxyindole]
- MIC [1, 10]: 128 µg/mL (≈ 285 µM)
- MIC [2, 11]: 128 µg/mL (≈ 285 µM)
- MIC [3, 12]: 128 µg/mL (≈ 285 µM)
- MIC [4, 13]: 128 µg/mL (≈ 285 µM)
- MIC [5, 14]: 128 µg/mL (≈ 285 µM)
- MIC [6]: 0.25 µg/mL (≈ 0.556 µM)
- MIC [7]: 2 µg/mL (≈ 4.45 µM)
- MIC [8, 15]: 256 µg/mL (≈ 569 µM)
- MIC [9, 16]: 256 µg/mL (≈ 569 µM)
